The CheMixHub viscosity set

Experiment: xn = mol fraction of the nth substance listed

O=C1CCCCC1 + CCCCCCC
viscosity [mPa·s]
Details | 298.15 K | 303.15 K | 308.15 K
101 kPa, x1 = 0.1125 | 0.437 | – | –
101 kPa, x1 = 0.2097 | 0.484 | – | –
101 kPa, x1 = 0.3055 | 0.539 | – | –
101 kPa, x1 = 0.4144 | 0.616 | – | –
101 kPa, x1 = 0.5033 | 0.702 | – | –
101 kPa, x1 = 0.5928 | 0.803 | – | –
101 kPa, x1 = 0.7027 | 0.97 | – | –
101 kPa, x1 = 0.8091 | 1.184 | – | –
101 kPa, x1 = 0.8686 | 1.34 | – | –
101.33 kPa, x1 = 0.1046 | 0.427 | 0.403 | 0.384
101.33 kPa, x1 = 0.2024 | 0.472 | 0.445 | 0.421
101.33 kPa, x1 = 0.3035 | 0.529 | 0.497 | 0.47
101.33 kPa, x1 = 0.4016 | 0.606 | 0.564 | 0.53
101.33 kPa, x1 = 0.5025 | 0.69 | 0.644 | 0.605
101.33 kPa, x1 = 0.5993 | 0.805 | 0.75 | 0.701
101.33 kPa, x1 = 0.7026 | 0.96 | 0.893 | 0.828
101.33 kPa, x1 = 0.8009 | 1.178 | 1.085 | 1.004
101.33 kPa, x1 = 0.9009 | 1.474 | 1.349 | 1.235

CCCCCC(=O)O + ClC(Cl)(Cl)Cl
298.15 K, 101 kPa
Details | viscosity [mPa·s]
x1 = 0.07 | 0.966
x1 = 0.13 | 1.033
x1 = 0.19 | 1.108
x1 = 0.25 | 1.188
x1 = 0.47 | 1.548
x1 = 0.57 | 1.743
x1 = 0.67 | 1.927
x1 = 0.84 | 2.343

CC(=O)CC(C)C + CCCCO
101 kPa
Details | viscosity [mPa·s]
303.15 K, x2 = 0.1311 | 0.542
303.15 K, x2 = 0.2531 | 0.592
303.15 K, x2 = 0.367 | 0.653
303.15 K, x2 = 0.4745 | 0.748
303.15 K, x2 = 0.5795 | 0.862
303.15 K, x2 = 0.6729 | 0.997
303.15 K, x2 = 0.7627 | 1.185
303.15 K, x2 = 0.8465 | 1.42
303.15 K, x2 = 0.9254 | 1.728
313.15 K, x2 = 0.1311 | 0.482
313.15 K, x2 = 0.2533 | 0.526
313.15 K, x2 = 0.3677 | 0.578
313.15 K, x2 = 0.4745 | 0.647
313.15 K, x2 = 0.5754 | 0.733
313.15 K, x2 = 0.6704 | 0.844
313.15 K, x2 = 0.7604 | 0.98
313.15 K, x2 = 0.9236 | 1.43
323.15 K, x2 = 0.1319 | 0.428
323.15 K, x2 = 0.2542 | 0.464
323.15 K, x2 = 0.3688 | 0.507
323.15 K, x2 = 0.4759 | 0.565
323.15 K, x2 = 0.5759 | 0.621
323.15 K, x2 = 0.6721 | 0.707
323.15 K, x2 = 0.7597 | 0.801
323.15 K, x2 = 0.8452 | 0.937
323.15 K, x2 = 0.9386 | 1.136

O=C1CCCCC1 + Cc1ccc(C)cc1
viscosity [mPa·s], 101.33 kPa
Details | x1 = 0.1013 | x1 = 0.2048 | x1 = 0.3016 | x1 = 0.4023 | x1 = 0.5186 | x1 = 0.6081 | x1 = 0.7034 | x1 = 0.7967 | x1 = 0.9005
298.15 K | 0.655 | 0.702 | 0.762 | 0.834 | 0.938 | 1.04 | 1.194 | 1.35 | 1.617
303.15 K | 0.612 | 0.657 | 0.711 | 0.777 | 0.871 | 0.965 | 1.088 | 1.237 | 1.481
308.15 K | 0.574 | 0.618 | 0.667 | 0.728 | 0.819 | 0.897 | 1.01 | 1.144 | 1.354

CCOCC + O=S(=O)(O)O
303.15 K, 101 kPa
Details | viscosity [mPa·s]
x1 = 0.00853 | 206.9
x1 = 0.01735 | 203
x2 = 0.05093 | 2.73
x2 = 0.07611 | 3.096
x2 = 0.1322 | 4.36
x2 = 0.1739 | 5.79
x2 = 0.2412 | 9.824
x2 = 0.3269 | 21.94
x2 = 0.3684 | 34.8
x2 = 0.3933 | 47.52
x2 = 0.4239 | 67.01
x2 = 0.4513 | 87.88
x2 = 0.5139 | 134.5
x2 = 0.5527 | 153.7
x2 = 0.5826 | 161.5
x2 = 0.636 | 160.6
x2 = 0.6604 | 156.7
x2 = 0.729 | 133.8
x2 = 0.8088 | 127.2
x2 = 0.8194 | 127.2
x2 = 0.891 | 138.2
x2 = 0.9089 | 145.2
x2 = 0.9478 | 169.2
x2 = 0.9658 | 187.2
x2 = 0.9684 | 189.7
x2 = 0.9737 | 196.3

CCCCCCO + CCO
Details | viscosity [mPa·s]
298.15 K, 101.33 kPa, x2 = 0.1094 | 4.001
298.15 K, 101.33 kPa, x2 = 0.2099 | 3.537
298.15 K, 101.33 kPa, x2 = 0.3973 | 2.828
298.15 K, 101.33 kPa, x2 = 0.5015 | 2.484
298.15 K, 101.33 kPa, x2 = 0.5903 | 2.214
298.15 K, 101.33 kPa, x2 = 0.6925 | 1.894
298.15 K, 101.33 kPa, x2 = 0.8012 | 1.574
298.15 K, 101.33 kPa, x2 = 0.899 | 1.305
303.15 K, 101 kPa, x2 = 0.1433 | 3.364
303.15 K, 101 kPa, x2 = 0.2814 | 2.887
303.15 K, 101 kPa, x2 = 0.487 | 2.241
303.15 K, 101 kPa, x2 = 0.6448 | 1.807
303.15 K, 101 kPa, x2 = 0.7691 | 1.509
303.15 K, 101 kPa, x2 = 0.8692 | 1.28
303.15 K, 101 kPa, x2 = 0.9524 | 1.093

CCC(C)N (configuration not stated) + O
viscosity [mPa·s], 101.33 kPa
Details | x1 = 0.1 | x1 = 0.1999 | x1 = 0.3 | x1 = 0.3998 | x1 = 0.4994 | x1 = 0.5999 | x1 = 0.6998 | x1 = 0.7997 | x1 = 0.8999
298.15 K | 2.276 | 2.556 | 2.232 | 1.774 | 1.322 | 0.9973 | 0.7605 | 0.5992 | 0.4885
303.15 K | 1.937 | 2.173 | 1.917 | 1.538 | 1.165 | 0.8899 | 0.6906 | 0.552 | 0.4543
308.15 K | 1.669 | 1.865 | 1.659 | 1.341 | 1.033 | 0.8024 | 0.6317 | 0.5102 | 0.4248
313.15 K | 1.453 | 1.616 | 1.443 | 1.18 | 0.921 | 0.7245 | 0.5794 | 0.4736 | 0.3983
318.15 K | 1.275 | 1.417 | 1.269 | 1.047 | 0.8266 | 0.6602 | 0.534 | 0.4409 | 0.3744
323.15 K | 1.138 | 1.25 | 1.123 | 0.9361 | 0.7467 | 0.61 | 0.4935 | 0.4113 | 0.3528
